Source: ChEMBL document CHEMBL1201862, “PubChem BioAssay data set” (2004)
Active and inactive are the calls of the source.

Key:
[1] = target: T1, Short transient receptor potential channel 4 (Mus musculus, UniProt Q9QUQ5); experiment: mouse TRPC4 channel activators, dose response, cell-based, HEK293 TRPC4/mu-opioid, Fluo-4 calcium (AID 434937); type: functional
T1 sequence (Q9QUQ5 whole entry): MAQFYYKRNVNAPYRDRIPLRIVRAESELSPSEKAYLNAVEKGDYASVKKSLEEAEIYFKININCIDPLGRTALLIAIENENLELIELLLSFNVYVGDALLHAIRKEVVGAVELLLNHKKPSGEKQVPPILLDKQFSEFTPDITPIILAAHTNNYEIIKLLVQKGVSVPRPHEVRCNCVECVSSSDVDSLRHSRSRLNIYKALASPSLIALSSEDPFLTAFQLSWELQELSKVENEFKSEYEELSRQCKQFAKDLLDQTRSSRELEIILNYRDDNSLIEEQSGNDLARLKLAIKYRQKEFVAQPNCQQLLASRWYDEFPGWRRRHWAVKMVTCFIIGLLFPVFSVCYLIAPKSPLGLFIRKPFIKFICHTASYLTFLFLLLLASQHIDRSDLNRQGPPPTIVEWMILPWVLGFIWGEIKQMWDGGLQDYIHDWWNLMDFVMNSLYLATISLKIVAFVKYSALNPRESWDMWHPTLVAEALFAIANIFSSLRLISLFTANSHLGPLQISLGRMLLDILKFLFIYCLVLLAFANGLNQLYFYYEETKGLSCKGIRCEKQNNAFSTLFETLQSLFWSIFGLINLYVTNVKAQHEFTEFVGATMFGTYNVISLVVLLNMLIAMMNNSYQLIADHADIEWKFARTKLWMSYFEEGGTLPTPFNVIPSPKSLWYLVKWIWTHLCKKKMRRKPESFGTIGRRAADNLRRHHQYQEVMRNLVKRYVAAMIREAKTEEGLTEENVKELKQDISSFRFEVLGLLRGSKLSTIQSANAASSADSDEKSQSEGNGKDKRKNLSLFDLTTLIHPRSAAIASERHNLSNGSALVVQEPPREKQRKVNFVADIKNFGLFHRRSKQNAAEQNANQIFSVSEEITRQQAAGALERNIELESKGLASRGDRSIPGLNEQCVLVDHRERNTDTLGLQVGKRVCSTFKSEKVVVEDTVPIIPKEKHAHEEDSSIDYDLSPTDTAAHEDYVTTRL

[2] = P. falciparum 3D7-ScDHODH growth inhibitors, dose response, SYBR Green, dry powder samples (AID 1159570); type: functional, cell-based;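 further: parasite growth measured after 72 hours of compound exposure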
[3] = P. falciparum Dd2 growth inhibitors, dose response, SYBR Green, dry powder samples (AID 1159566); type: functional, cell-based;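 further: potency for growth inhibition with lower SYBR green DNA signal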
[4] = P. falciparum ATP4 D1247Y mutant growth inhibitors, dose response, NITD609-resistant line, SYBR Green, dry powder (AID 1159571); type: functional, cell-based;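 further: parasites synchronized at ring stage by sorbitol before testing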
[5] = P. falciparum Dd2 growth inhibitors, dose response, SYBR Green, cherry-picked samples (AID 1159567); type: functional, cell-based
[6] = Luminescence Cell-Based Dose Confirmation HTS to Identify Inhibitors of Platelet Dense Granule Release. [Related pubchem assays: 1663 (Primary HTS), 1678 (Summary of Project)]; type: functional
[7] = target: Luciferin 4-monooxygenase (Photinus pyralis, UniProt P08659); experiment: firefly luciferase enzyme inhibitors, dose response, biochemical, luminescence (AID 1891)
Luciferin 4-monooxygenase, sequence (P08659 whole entry): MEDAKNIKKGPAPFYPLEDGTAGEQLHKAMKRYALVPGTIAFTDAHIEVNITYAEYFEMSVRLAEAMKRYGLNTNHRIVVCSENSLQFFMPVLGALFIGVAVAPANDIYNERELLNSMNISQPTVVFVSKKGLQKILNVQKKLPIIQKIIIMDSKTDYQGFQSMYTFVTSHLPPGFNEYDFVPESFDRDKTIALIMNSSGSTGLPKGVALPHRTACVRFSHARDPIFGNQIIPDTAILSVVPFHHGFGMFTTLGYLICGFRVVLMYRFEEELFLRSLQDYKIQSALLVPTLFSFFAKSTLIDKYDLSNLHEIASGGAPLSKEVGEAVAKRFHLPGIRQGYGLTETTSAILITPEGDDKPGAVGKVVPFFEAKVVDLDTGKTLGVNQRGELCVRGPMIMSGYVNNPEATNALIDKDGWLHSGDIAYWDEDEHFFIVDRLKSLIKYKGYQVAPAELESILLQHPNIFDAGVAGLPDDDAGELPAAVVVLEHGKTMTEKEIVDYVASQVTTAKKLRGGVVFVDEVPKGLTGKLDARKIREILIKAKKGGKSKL

[8] = cytotoxicity in HEK-293T cells, dose response, cytotoxicity control for BCR NF-kB inhibitor project, luminescence, B-cell screen hits (AID 489021); type: functional, cell-based;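 further: HEK-293T cells carrying an NF-kB luciferase reporter; cells exposed to compound for about 14 hours before viability readout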
[9] = inhibitors of intracellular T. cruzi replication, confirmation, NIH3T3 host cells, beta-gal luminescence (AID 2044); type: functional, cell-based;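 further: intracellular parasites grown in NIH/3T3 mouse fibroblasts as host cells; luminescent beta-galactosidase reporter signal from transgenic T. cruzi replicating inside host cells; inhibitors lower the luminescence signal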
[10] = cytotoxicity toward NIH3T3 fibroblasts, dose response, counter-screen, cell-based, ATP luminescence, mouse fibroblasts (AID 2010); type: functional;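 further: cells exposed to compound for about 90 hours before reading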
[11] = NIH:OVCAR-3 ovarian cancer cell cytotoxicity, dose response, PAX8 inhibitor project, plate reader, dry powder samples (AID 743044); type: functional, cell-based
Paired box protein Pax-8 = Paired box protein Pax-8 (Homo sapiens, UniProt Q06710); experiment: inhibitors of PAX8-driven TPO luciferase reporter, dose response, RMG-I cells, cherry-pick (AID 687027); type: functional, cell-based;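 further: luciferase reporter driven by Pax8 target thyroperoxidase promoter measured by SteadyGlo luminescence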
Paired box protein Pax-8, sequence (Q06710 whole entry): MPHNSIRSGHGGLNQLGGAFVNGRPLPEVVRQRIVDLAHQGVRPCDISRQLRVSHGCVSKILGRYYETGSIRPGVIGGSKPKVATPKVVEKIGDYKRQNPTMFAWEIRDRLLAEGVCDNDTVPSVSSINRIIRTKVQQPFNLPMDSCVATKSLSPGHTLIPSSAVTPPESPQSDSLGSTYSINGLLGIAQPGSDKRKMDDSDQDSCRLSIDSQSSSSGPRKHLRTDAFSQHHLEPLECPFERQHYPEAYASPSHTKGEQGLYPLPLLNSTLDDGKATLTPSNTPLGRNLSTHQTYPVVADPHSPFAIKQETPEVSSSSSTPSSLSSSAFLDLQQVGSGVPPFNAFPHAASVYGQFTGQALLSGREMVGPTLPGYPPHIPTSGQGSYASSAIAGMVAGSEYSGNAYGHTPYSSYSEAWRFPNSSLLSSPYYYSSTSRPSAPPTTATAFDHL

[12] = cytotoxicity in OVCAR8 ovarian cancer cells, dose response, PAX8 project, cell-based, plate reader, dry powder samples (AID 743197); type: functional; settings: OVCAR-8
[13] = inhibitors of firefly luciferase expression or activity, dose response, H4 neuroglioma cells, luminescence (AID 1990); type: functional, cell-based
[14] = target: T2, Calpain-2 catalytic subunit (Sus scrofa, UniProt P43367); experiment: pig calpain II inhibitor potency, dose response, biochemical, fluorogenic peptide substrate (AID 1420); type: functional
T2 sequence (P43367 whole entry): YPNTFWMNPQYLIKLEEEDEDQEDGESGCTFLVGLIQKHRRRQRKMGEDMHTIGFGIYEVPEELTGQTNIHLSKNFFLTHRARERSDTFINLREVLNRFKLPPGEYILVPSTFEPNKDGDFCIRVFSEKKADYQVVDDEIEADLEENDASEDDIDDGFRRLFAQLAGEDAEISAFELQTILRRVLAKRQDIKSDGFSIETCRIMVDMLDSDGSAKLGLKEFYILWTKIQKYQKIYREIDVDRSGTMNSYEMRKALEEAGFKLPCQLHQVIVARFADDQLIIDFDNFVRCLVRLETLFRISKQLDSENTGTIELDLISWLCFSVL

[15] = inhibitors of SNCA 5'UTR-driven reporter translation, confirmation, H4 neuroglioma cells, luminescence (AID 1988); type: functional, cell-based
[16] = Luminescence Cell-Based Dose Response HTS to Identify Inhibitors of 5'UTR Stem-Loop Driven Prion Protein mRNA Translation in H4 Neuroglioblastoma Cells. [Related pubchem assays: 1827 (Project Summary), 1813 (Primary HTS)]; type: functional
[17] = THP-1 cell cytotoxicity, dose response, cytotoxicity control for non-replicating M. tuberculosis project (AID 489025); type: functional
[18] = Vero E6 cell cytotoxicity, dose response, cytotoxicity control for non-replicating M. tuberculosis project, secondary assay (AID 492998); type: functional, VeroE6; settings: Vero C1008
cells [19] = type: functional
[20] = HepG2 cell cytotoxicity, dose response, cytotoxicity control for non-replicating M. tuberculosis project (AID 489018); type: functional; settings: Mycobacterium tuberculosis
[21] = target: T3, DNA repair protein RAD52 homolog (Homo sapiens, UniProt P43351); type: functional, biochemical
T3 sequence (P43351 whole entry): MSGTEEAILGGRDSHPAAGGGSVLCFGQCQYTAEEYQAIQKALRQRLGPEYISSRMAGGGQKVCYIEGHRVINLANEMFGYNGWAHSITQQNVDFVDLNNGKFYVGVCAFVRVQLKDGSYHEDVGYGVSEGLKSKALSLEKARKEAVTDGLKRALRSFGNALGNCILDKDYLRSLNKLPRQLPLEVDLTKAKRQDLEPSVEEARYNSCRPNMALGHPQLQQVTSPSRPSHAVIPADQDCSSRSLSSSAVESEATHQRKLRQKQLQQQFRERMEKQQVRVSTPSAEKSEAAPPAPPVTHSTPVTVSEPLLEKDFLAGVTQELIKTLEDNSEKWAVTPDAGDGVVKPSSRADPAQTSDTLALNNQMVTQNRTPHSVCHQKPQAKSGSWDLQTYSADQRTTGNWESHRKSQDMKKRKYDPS

[22] = target: T4, Ubiquitin-conjugating enzyme E2 N (Homo sapiens, UniProt P61088); type: functional;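 further: Dose-response confirmation in a TR-FRET assay detecting UBC13-driven polyubiquitin chain formation, inhibition measured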
T4 sequence (P61088 whole entry): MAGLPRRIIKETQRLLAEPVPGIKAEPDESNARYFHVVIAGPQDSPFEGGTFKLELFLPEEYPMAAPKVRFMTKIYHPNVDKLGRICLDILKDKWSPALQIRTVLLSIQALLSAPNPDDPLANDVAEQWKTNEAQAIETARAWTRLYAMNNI

Streptococcus = experiment: Group A Streptococcus viability loss, dose response, counter-screen for streptokinase expression inhibitor project, luminescence, BacTiterGlo (AID 1915); type: functional, organism-based;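 further: potency for reduction of bacterial viability or growth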
[23] = tested on: Streptococcus sp. 'group A'; experiment: growth inhibition of control SK(-) GAS strain, dose response, counter-screen for streptokinase expression inhibitor project, luminescence, kanamycin, BacTiterGlo, confirmation (AID 1900); type: functional, organism-based
cells [24] = type: functional, cell-based
cells [25] = type: functional, cell-based; remark: listed apart in the source
INS1 = experiment: beta cell apoptosis inhibitors, cytokine rescue, dose response, luminescence, retest (AID 449756); type: functional, cell-based; settings: Rattus norvegicus;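 further: cell death triggered by IL-1 beta plus TNF-alpha plus IFN-gamma mixture; protective hits raise ATP signal compared with cytokine alone wells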

SMILES: COc1ccc(/C=N/NC(=O)C2COc3ccccc3O2)cc1OC (stereo unspecified)
- EC50 [1]: 0.841 µM (active)

SMILES: CCCCCc1c(O)nc(SCCN(C)C)nc1O
- EC50 [1]: 4.22 µM (active)

SMILES: C[C@H]1CN([C@@H](C)CO)C(=O)c2c(c3ccccc3n2C)-c2ccccc2CO[C@@H]1CN(C)S(=O)(=O)c1ccc(F)cc1
- AC50 [2]: 1.4 µM (active)
- AC50 [3]: 0.755 µM (active)
- AC50 [4]: 1.15 µM (active)
- AC50 [5]: 1.89 µM (active)

SMILES: Cc1ccc(S(=O)(=O)N(C)C[C@H]2OCc3ccccc3-c3c(n(C)c4ccccc34)C(=O)N([C@@H](C)CO)C[C@@H]2C)cc1
- AC50 [2]: 1.21 µM (active)
- AC50 [3]: 0.818 µM (active)
- AC50 [4]: 0.807 µM (active)
- AC50 [5]: 1.53 µM (active)

SMILES: CCCc1cn(CC[C@@H]2CC[C@H](NS(=O)(=O)c3ccc(-c4ccccc4)cc3)[C@H](CO)O2)nn1
- AC50 [2]: 0.916 µM (active)
- AC50 [3]: 0.332 µM (active)
- AC50 [4]: 0.883 µM (active)
- AC50 [5]: 1.39 µM (active)

SMILES: CCN1C(=O)Nc2cccc3cccc1c23
- EC50 [6]: 7.12 µM (active)
- EC50 [7]: > 112 µM (not active)
- IC50 [8]: > 80 µM (inactive)

SMILES: Clc1cccc(OCCN2CCNCC2)c1
- EC50 [9]: 0.744 µM (active)
- EC50 [10]: > 60 µM (not active)
- EC50 [1]: 0.841 µM (active)

SMILES: C[C@H]1CCCCO[C@H](CN(C)S(=O)(=O)c2ccc(F)cc2)[C@@H](C)CN([C@@H](C)CO)C(=O)c2cc(NS(=O)(=O)c3ccc(Cl)cc3)ccc2O1
- AC50 [11]: 49.2 µM (active)
- AC50 (Paired box protein Pax-8): 5.92 µM (active)
- AC50 [12]: 60.6 µM (active)

SMILES: O=C(CCCN1C(=O)/C(=C/c2ccccc2Cl)SC1=S)NNC(=O)c1ccc(Cl)cc1Cl
- EC50 [13]: 0.675 µM (active)
- IC50 [14]: > 50 µM (not active)
- EC50 [6]: > 112 µM (not active)
- EC50 [15]: 1.03 µM (active)
- EC50 [7]: > 112 µM (not active)
- IC50 [8]: > 80 µM (inactive)
- EC50 [16]: 7.86 µM (active)

SMILES: Cc1cc(N2CCN(c3ccccc3)CC2)nc(-n2nc(C)cc2C)n1
- CC50 [17]: > 40 µM (active)
- CC50 [18]: > 20 µM (active)
- IC50 (cells [19]): 0.94 µM (active)

SMILES: Nc1cccn2c(-c3ccc(Cl)cc3)cnc12
- CC50 [20]: 19.1 µM (active)

SMILES: Cc1ccc(S(=O)(=O)Nc2ccc3c(c2)C(=O)N([C@@H](C)CO)C[C@H](C)[C@H](CN(C)Cc2ccc(C(F)(F)F)cc2)OCCCC[C@@H](C)O3)cc1
- AC50 (Paired box protein Pax-8): 7.03 µM (active)
- AC50 [12]: > 70 µM (inactive)

SMILES: O=C(C1CCCCC1)N1[C@H](CO)[C@@H](c2ccccc2)C12CN(Cc1cccc(Cl)c1)C2
- AC50 [2]: 0.651 µM (active)
- AC50 [3]: 0.353 µM (active)
- AC50 [4]: 0.606 µM (active)
- AC50 [5]: 1.43 µM (active)

SMILES: CC(C)NC(=O)N(C)C[C@H]1OCCCC[C@@H](C)Oc2ccc(NC(=O)Nc3ccc(C(F)(F)F)cc3)cc2C(=O)N([C@@H](C)CO)C[C@H]1C
- AC50 [11]: 32.7 µM (active)
- AC50 (Paired box protein Pax-8): 8.11 µM (active)
- AC50 [12]: 48.9 µM (active)

SMILES: Cc1c(CCC(=O)N2CCC[C@H]2C(=O)O)c(=O)oc2cc3oc4c(c3cc12)CCCC4
- EC50 [13]: 8.13 µM (active)
- EC50 [15]: 10.2 µM (active)
- IC50 [8]: > 80 µM (inactive)

SMILES: CC[C@H](C)Cc1cn([C@@H](CCCCN)C(=O)NCCCCCCCCCCC(=O)N2CCNCC2)nn1
- AC50 [21]: 13.2 µM (active)
- IC50 [22]: > 20 µM (inactive)

SMILES: O=C(NCCCN1CCN(CCCNC(=O)c2ccc3c(c2)OCO3)CC1)c1ccc2c(c1)OCO2
- EC50 [1]: 0.267 µM (active)

SMILES: COc1ccc(/C(C)=N/Nc2ncc(Cl)cc2Cl)c(O)c1
- CC50 [17]: 24.9 µM (active)
- CC50 [18]: > 20 µM (active)
- IC50 (cells [19]): 2.19 µM (active)
- CC50 [20]: 19.3 µM (active)

SMILES: CCCOc1ccc(C(=O)NNC(=S)NC(=O)c2ccccc2)cc1
- EC50 (Streptococcus): 0.762 µM (active)
- EC50 [13]: 12.5 µM (active)
- EC50 [15]: > 120 µM (not active)
- EC50 [16]: 14.5 µM (active)
- EC50 [23]: 0.54 µM (active)
- EC50 [1]: 3.35 µM (active)

SMILES: Cc1nnsc1C(=O)N/N=C/c1ccc2ccccc2c1O
- EC50 (cells [24]): 6.43 µM (active)
- CC50 [17]: < 0.078 µM (active)
- CC50 [18]: 0.09 µM (active)
- EC50 (cells [25]): 35.8 µM (active)
- AC50 (INS1): 0.321 µM (active)
- IC50 (cells [19]): > 50 µM (active)
- CC50 [20]: 1.51 µM (active)
